Reference: article PMC7984390 (Journal of Clinical Pharmacology, 2020)
Where “and” joins values, the source holds several entries; their conditions need not be identical. Identical values can stand only once. Entries after “also recorded” stand apart in the source; their conditions may differ. One block for each molecule: values may come before it.

Legend:
[1] = Phase 1 study: iohexol plasma clearance as marker of GFR; assay type: in vivo, human; details: for Iohexol C0, arithmetic mean (CV%) / Iohexol CLsyst, arithmetic mean (CV%): iohexol iv
Phase 1 study: safety = assay type: in vivo, human; details: by treatment period; healthy subjects
[2] = Phase 1 study: endogenous markers of renal function; assay type: in vivo, human
[3] = cited from earlier work
[4] = treatment metformin + tucatinib, n = 17
[5] = combination treatment versus metformin alone
[6] = metformin alone or with tucatinib, n = 17
[7] = urine 0-24 h, metformin 850 mg oral, alone or with tucatinib, n = 17

Iohexol C0, arithmetic mean (CV%) [1, 4]: 178.5 (21.5) µg/mL
Iohexol CLsyst, arithmetic mean (CV%) [1, 4]: 129.0 (22.0) mL/min
Iohexol C0, arithmetic mean (CV%) ([1]; treatment metformin, n = 17): 175.6 (18.0) µg/mL
Iohexol CLsyst, arithmetic mean (CV%) ([1]; treatment metformin, n = 17): 129.8 (22.7) mL/min
SMILES: CC(=O)N(CC(O)CO)c1c(I)c(C(=O)NCC(O)CO)c(I)c(C(=O)NCC(O)CO)c1I (stereo not drawn) [Iohexol]

GFR, arithmetic mean (CV%) ([1]; calculated from iohexol plasma clearance, n = 17): 94.99 (17.4) mL/min/1.73 m^2
Mean eGFR derived from cystatin C, 12 hours postdose [2, 5]: 97.9 mL/min/1.73 m^2
Mean eGFR derived from cystatin C, premetformin dose [2, 5]: 101.4 mL/min/1.73 m^2
Mean CrCl 24 hours postdose ([2]; day 2 (after metformin alone) versus day 9 (in the presence of tucatinib)): 152.3 mL/min
Mean cystatin C concentration prior to metformin dosing ([2]; metformin alone (day 1) versus tucatinib coadministration (day 8)): 0.846 mg/L
Mean cystatin C concentration 12 hours postmetformin dosing ([2]; metformin alone versus metformin and tucatinib): 0.881 mg/L
Tmax (human, plasma, oral, 850 mg): 1.5 to 4 h
Cmax (human, plasma, po, 850 mg): 1300 ng/mL
Metformin CLrenal, arithmetic mean (CV%) (metformin 850 mg oral, alone or with tucatinib 300 mg twice daily, n = 17): 30.0 (27.0) L/h
Metformin CL/F, geometric LSM [6]: 102.0 L/h
Metformin VzF, geometric LSM [6]: 664.7 L
Ae0‐24, amount of metformin excreted unchanged in urine, arithmetic mean (CV%) [7]: 242.6 (26.5) mg
Fe0‐24, cumulative fraction of metformin excreted unchanged in urine, arithmetic mean (CV%) [7]: 28.54% and 28.5 (26.5) %
SMILES: CN(C)C(=N)N=C(N)N [Metformin]
Proportion of subjects who experienced TEAEs (Phase 1 study: safety): 38.9%

Effect of tucatinib on GFR (iohexol clearance) ([1]; tucatinib 300 mg twice daily): unchanged; also recorded: unaffected
Effect of tucatinib on cystatin C-based eGFR ([2]; tucatinib 300 mg twice daily): unchanged
Effect of tucatinib on metformin Cmax (tucatinib 300 mg twice daily coadministered with metformin 850 mg): no effect
SMILES: Cc1cc(Nc2ncnc3ccc(NC4=NC(C)(C)CO4)cc23)ccc1Oc1ccn2ncnc2c1 [Tucatinib]
Proportion of subjects who experienced TEAEs (Phase 1 study: safety): 33.3%
Patients with adverse event of elevated serum creatinine concentration ([3]; tucatinib arm (with trastuzumab and capecitabine), HER2CLIMB): 13.9%
Patients with increased creatinine as a laboratory abnormality ([3]; tucatinib arm, all grade 1 or 2): 33%
